Assay results taken from PMC12455572, “Amphipathic Proline-Rich Cell Penetrating Peptides for Targeting Mitochondria” (ACS Chemical Biology, 2025).
“Also recorded” adds a separate entry of the source. Where a SMILES comes first, the peptide text is derived from it. [ ]: non-standard residue; d: D form. The star is where a group is joined. 5FAM = O=C1OC2(c3ccc(O)cc3Oc3cc(O)ccc32)c2ccc(C(=O)*)cc21; Pro(cis-4-guanidino) = NC(N)=N[C@@H]1CN[C@H](C(=O)O)C1; Cha = N[C@@H](CC1CCCCC1)C(=O)O; Ahx = NCCCCCC(=O)O

Key:
MCF-7 cells = test: Flow cytometry (FACS): overall cellular uptake; format: cell-based; details: for Total cellular fluorescence after the 24 h rest compared with directly after 1 h incubation (FACS): MCF-7, 1 h incubation at 37 °C, then 24 h rest in DMEM + 10% FBS; for Fold higher cellular uptake with additional C-terminal hydrophobic residue (FACS): 1 h, 37 °C, versus the peptide without the C-terminal Cha/ChPro
Method: MCF-7 cells were seeded in a 24-well plate at 150′000 cells/well in DMEM (1 mL, 10% FCS), and allowed to adhere overnight. The medium was removed, the cells were washed with PBS (250 μL, 1x) and incubated with the peptide solution at 20 μM, 10 μM, 5 μM or 2.5 μM in medium (200 μL, 1% FCS) for 1 h at 37 °C. The medium was removed, and the cells were washed with PBS (250 μL, 2x). Trypsin (100 μL, 0.05%) was added, and the cells were incubated at 37 °C for 5 min. D-PBS with Mg^2+ and Ca^2+ (300 μL, 4 °C) was added, the cells were resuspended and centrifuged for 5 min at 0.4 rcf. The supernatant was carefully removed, and the cells were resuspended in a solution of PBS containing 1.5 μM PI and 2 mM EDTA (400 μL at 4 °C). The cells were added to FACS tubes and kept on ice prior to analysis. Each sample contained 10′000 cells and was analyzed in triplicate. Each experiment was repeated three times.
For the experiments that included the 24 h rest period, the peptides were incubated as described above. After the 1 h incubation time, the cells were washed with PBS (250 μL, 2x), DMEM (250 μL, 10% FBS) was added, and the cells were kept at 37 °C, 5% CO2 for 24 h. For a direct comparison of the effect of a 24 h rest period, another set of peptides was incubated with the cells for 1 h. Then, cells of both sets of experiments (1 h followed by the 24 h rest period versus 1 h incubation) were washed with PBS, treated with trypsin, and prepared for FACS analysis as described above. Each sample was run in triplicate and was repeated three times. […]
MCF-7 cells were obtained from the American Type Culture Collection (ATCC).
The cells were grown in a humidified 5% CO2 atmosphere at 37 °C Dulbecco’s Modified Eagle’s Medium (DMEM), high glucose, GlutaMAXTM (4 mM) supplemented with L-glutamine (4 mM), gentamicin (10 mg/L), […]
Fluorescence-Activated Cell Sorting (FACS) analyzer
On a BD LSRFortessa flow cytometer, CF was excited at 488 nm and monitored with 530/30 bandpass, PI was excited at 561 nm and monitored with a 610/20 bandpass. Mean fluorescence values were determined from the histograms using FlowJo 10.0.6 software while dead cells were removed according to PI staining.
Below is an example, CF-Ahx-(ChaZZ)3, of gating, set on untreated cells and propagated to all samples.
Each sample was run in triplicate, and each experiment was repeated at least three times.
(1 picture or pasted object on this page, not shown here)

[1] = Stability of the peptides in cell lysate; format: in vitro ADME; details: 200 µM peptide, 37 °C, RP-HPLC at 488 nm; for Stability in MCF-7 cell lysate: MCF-7 cell lysate 1 mg/mL protein in PBS, time points 0 min, 1 h and 24 h
Method: MCF-7 cells were grown to confluency in a T-175 flask. Cells were washed with PBS (12 mL, 4 °C) and subsequently scraped off into PBS (7 mL, 4 °C) and collected in a Falcon tube. The suspension was then sonicated for 3 sec at an amplitude of 30% followed by a 30 sec rest period, and the procedure was repeated three time. The insoluble fraction was removed by centrifugation for 10 min at 12.000 rcf, at 4 °C and the supernatant was transferred to a new tube. […]
Stability of the peptides in cell lysate
The peptides were added (final concentration of 200 µM) to the MCF-7 cell lysate, with a protein concentration adjusted to 1 mg/mL with PBS. Immediately after addition of the peptide to the cell lysate, a sample (80 µL) was taken as the t = 0 min time point. The sample was diluted in MeCN (1:1), kept on ice for 5 min and centrifuged (12.000 rcf, 10 min, 4 °C). The supernatant was filtered and analyzed by analytical RP-HPLC (at 488 nm) using the standard conditions (gradient 70 % to 45 % of B over 20 min at 25 °C).
The stability of the peptides was monitored at time points 0 min, 1 h and 24 h.

Row | Compound | Total cellular fluorescence after the 24 h rest compared with directly after 1 h incubation (FACS) (MCF-7 cells) | Stability in MCF-7 cell lysate [1] | Fold higher cellular uptake with additional C-terminal hydrophobic residue (FACS) (MCF-7 cells; MCF-7, 5 μM) [fold] | Fold higher cellular uptake with additional C-terminal hydrophobic residue (FACS) (MCF-7 cells; MCF-7, 10 μM) [fold] | Fold higher cellular uptake with additional C-terminal hydrophobic residue (FACS) (MCF-7 cells; MCF-7, 20 μM) [fold] | metabolised at 24 h ([1]; human, cells or culture medium, lysate 1 mg/mL protein in PBS, after 24 h incubation, read-out: Fraction degraded in MCF-7 cell lysate) [%]
1 | CF-Ahx-(ChaZZ)3-NH2 | lower; also recorded: less fluorescence was observed after 24 h | stable | – | – | – | –
2 | CF-Ahx-(ChaZZ)2-Cha-NH2 | lower; also recorded: Significantly less fluorescence was observed after 24 h | degraded in the MCF-7 cell lysate over time | 2 | 4 | 6 | –
3 | N=C(N)N[C@H]1C[C@@H](C(=O)N2C[C@@H](NC(=N)N)C[C@H]2C(=O)N[C@@H](CC2CCCCC2)C(=O)N2C[C@@H](NC(=N)N)C[C@H]2C(=O)N2C[C@@H](NC(=N)N)C[C@H]2C(=O)N[C@@H](CC2CCCCC2)C(=O)N2C[C@@H](NC(=N)N)C[C@H]2C(=O)N2C[C@@H](NC(=N)N)C[C@H]2C(=O)N[C@@H](CC2CCCCC2)C(N)=O)N(C(=O)[C@H](CC2CCCCC2)NC(=O)CCCCCNC(=O)c2ccc3c(c2)C(=O)OC32c3ccc(O)cc3Oc3cc(O)ccc32)C1 [(ChaZZ)3-Cha, CF-Ahx-(ChaZZ)3-Cha-NH2] ({5FAM-Ahx}-[Cha][Pro(cis-4-guanidino)][Pro(cis-4-guanidino)][Cha][Pro(cis-4-guanidino)][Pro(cis-4-guanidino)][Cha][Pro(cis-4-guanidino)][Pro(cis-4-guanidino)][Cha]-NH2) | constant or increased | – | 3 | 3 | 1.5 | ~6
